Here are results for 20 compounds from patent US10160748B2 (AbbVie Inc., priority 2015, dated 2018).

This experiment addresses TNFα trimer (Homo sapiens, UniProt P01375). Description: TNFα FP Competitive Binding Assay. To be noted: FP binding assay; 20 nM TNFα trimer, 1 nM OregonGreen488 probe; read-out: TNF IC50. An outline of the steps: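 Compounds in 12-point 1:3 series, final top 100 μM (2.0% DMSO) or 338 μM (3.4% DMSO), displace 1 nM fluorescent probe from 20 nM TNFα trimer. After 18-24 h incubation plus 1 h rt equilibration, background-subtracted polarization measured and curves fitted with variable slope.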

The structures appear in SMILES notation.

Chain of TNFα trimer (P01375 77-233 limits assumed): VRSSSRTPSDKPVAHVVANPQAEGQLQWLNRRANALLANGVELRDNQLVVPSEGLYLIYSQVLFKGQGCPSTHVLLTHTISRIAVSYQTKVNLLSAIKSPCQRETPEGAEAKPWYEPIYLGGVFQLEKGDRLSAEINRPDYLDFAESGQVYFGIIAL

Consider `Cc1ccc(OC(F)F)c(Cn2c3cc(-c4cnc(C5(C)CCNC5)nc4)ccc3c(=O)n2C)c1` (centres unmarked) [Example 87, 1-(2-(Difluoromethoxy)-5-methylbenzyl)-2-methyl-6-(2-(3-methylpyrrolidin-3-yl)pyrimidin-5-yl)-1H-indazol-3(2H)-one], for which the IC50 was under 1000 nM.

For the compound `Cc1ccc(OC(F)F)c(Cn2c3cc(-c4cnc(C5(C)CCN(C)C5)nc4)ccc3c(=O)n2C)c1` (centres unmarked) [Example 88, 1-(2-(Difluoromethoxy)-5-methylbenzyl)-6-(2-(1,3-dimethylpyrrolidin-3-yl)pyrimidin-5-yl)-2-methyl-1H-indazol-3(2H)-one], the IC50 was in the range of 1000 to 10000 nM.

Regarding `Cc1ccc(OC(F)F)c(Cn2c3cc(-c4ccc(C(C)(C)N)nc4)c(F)cc3c(=O)n2C)c1` [Example 89, 6-(6-(2-Aminopropan-2-yl)pyridin-3-yl)-1-(2-(difluoromethoxy)-5-methylbenzyl)-5-fluoro-2-methyl-1H-indazol-3(2H)-one 2,2,2-trifluoroacetate], the IC50 is under 1000 nM. For `COCc1ccc(OC(F)F)c(Cn2c3cc(-c4cnc(N5CCN(C(C)=O)CC5)nc4)ccc3c(=O)n2C)c1` [Example 90, 6-(2-(4-Acetylpiperazin-1-yl)pyrimidin-5-yl)-1-(2-(difluoromethoxy)-5-(methoxymethyl)benzyl)-2-methyl-1H-indazol-3(2H)-one], the IC50 lay in the range of 1000 to 10000 nM.

For the compound `Cn1c(=O)c2ccc(-c3cnc(C4(O)CN(C(=O)CO)C4)nc3)cc2n1Cc1ccccc1OC(F)F` [Example 91, 1-(2-(Difluoromethoxy)benzyl)-6-(2-(3-hydroxy-1-(2-hydroxyacetyl)azetidin-3-yl)pyrimidin-5-yl)-2-methyl-1H-indazol-3(2H)-one], the IC50 is 1000 to 10000 nM.

For the compound `Cn1c(=O)c2ccc(-c3cnc(C(C)(C)O)nc3)cc2n1Cc1cc(Cn2cn[nH]c2=O)ccc1OC(F)F` [Example 92, 1-(2-(Difluoromethoxy)-((5-oxo-1H-1,2,4-triazol-4(5H)-yl)methy)benzyl)-6-(2-(2-hydroxypropan-2-yl)pyrimidin-5-yl)-2-methyl-1H-indazol-3(2H)-one], the IC50 was 1000 to 10000 nM. The value for `Cn1c(=O)c2ccc(-c3cnc(N4CCN5C(=O)NC[C@H]5C4)nc3)cc2n1Cc1cc(Cn2cnnc2)ccc1OC(F)F` [Example 93, (S)-7-(5-(1-(5-((4H-1,2,4-triazol-4-yl)methyl)-2-(difluoromethoxy)benzyl)-2-methyl-3-oxo-2,3-dihydro-1H-indazol-6-yl)pyrimidin-2-yl)hexahydroimidazo[1,5-a]pyrazin-3(2H)-one] was under 1000 nM; that for `CCN(Cc1ccc(OC(F)F)c(Cn2c3cc(-c4cnc(N5CCN(C(C)=O)[C@H](C)C5)nc4)ccc3c(=O)n2C)c1)C(C)=O` [Example 94, (R)—N-(3-((6-(2-(4-Acetyl-3-methylpiperazin-1-yl)pyrimidin-5-yl)-2-methyl-3-oxo-2,3-dihydro-1H-indazol-1-yl)methyl)-4-(difluoromethoxy)benzyl)-N-ethylacetamide] was 1000 to 10000 nM. The value for `Cc1ccc(OC(F)F)c(Cn2c3nc(-c4cnc(C(C)(C)O)nc4C)ccc3c(=O)n2C)c1` [Example 95, 1-(2-(Difluoromethoxy)-5-methylbenzyl)-6-(2-(2-hydroxypropan-2-yl)-4-methylpyrimidin-5-yl)-2-methyl-1,2-dihydro-3H-pyrazolo[3,4-b]pyridin-3-one] was 1000 to 10000 nM; that for `Cc1ccc(OC(F)F)c(Cn2c3nc(-c4cnc(C(C)(C)O)nc4C)c(F)cc3c(=O)n2C)c1` [Example 98, 1-(2-(Difluoromethoxy)-5-methylbenzyl)-5-fluoro-6-(2-(2-hydroxypropan-2-yl)-4-methylpyrimidin-5-yl)-2-methyl-1,2-dihydro-3H-pyrazolo[3,4-b]pyridin-3-one] was under 1000 nM. The figure for `Cc1ccc(Cl)c(Cn2c3nc(-c4cnc(C(C)(C)O)nc4C)ccc3c(=O)n2C)c1` [Example 99, 1-(2-Chloro-5-methylbenzyl)-6-(2-(2-hydroxypropan-2-yl)-4-methylpyrimidin-5-yl)-2-methyl-1,2-dihydro-3H-pyrazolo[3,4-b]pyridin-3-one] is under 1000 nM. On to `Cn1c(=O)c2cc(F)c(-c3cnc(C(C)(C)O)nc3)cc2n1Cc1cc(CC#N)ccc1OC(F)F` [Example 100, 2-(4-(Difluoromethoxy)-3-((5-fluoro-6-(2-(2-hydroxypropan-2-yl)pyrimidin-5-yl)-2-methyl-3-oxo-2,3-dihydro-1H-indazol-1-yl)methyl)phenyl)acetonitrile], for which the IC50 lay within 1000 to 10000 nM. The figure for `CC(=O)N1CCN(c2ncc(-c3ccc4c(=O)n(C)n(Cc5cc(Cn6ccc(=O)[nH]6)ccc5OC(F)F)c4c3)cn2)C[C@H]1C` [Example 101, (R)-6-(2-(4-Acetyl-3-methylpiperazin-1-yl)pyrimidin-5-yl)-1-(2-(difluoromethoxy)-5-((3-oxo-2,3-dihydro-H-pyrazol-1-yl)methyl)benzyl)-2-methyl-1,2-dihydro-3H-indazol-3-one] is 1000 to 10000 nM; for `CC(=O)N1CCN(c2ncc(-c3ccc4c(=O)n(C)n(Cc5cc(COc6ccn[nH]6)ccc5OC(F)F)c4c3)cn2)C[C@H]1C` [Example 102] it is under 1000 nM.

On to `Cc1ccc(Cl)c(Cn2c3cc(-c4cnc(N5CCN6C(=O)NC[C@H]6C5)nc4)ccc3c(=O)n2C)c1` [Example 103, (S)-7-(5-(1(2-Chloro-5-methylbenzyl)-2-methyl-3-oxo-2,3-dihydro-1H-indazol-6-yl)pyrimidin-2-yl)hexahydroimidazo[1,5-a]pyrazin-3(2H)-one], for which the IC50 was under 1000 nM. Regarding `Cn1c(=O)c2ccc(-c3cnc(C(C)(C)O)nc3)cc2n1Cc1cc(Cn2cncn2)ccc1OC(F)F` [Example 104], the IC50 is under 1000 nM. For `CC(=O)N1CCN(c2ncc(-c3ccc4c(=O)n(C)n(Cc5nc(C)ccc5Cl)c4c3)cn2)C[C@H]1C` [Example 105, (R)-6-(2-(4-Acetyl-3-methylpiperazin-1-yl)pyrimidin-5-yl)-1-((3-chloro-6-methylpyridin-2-yl)methyl)-2-methyl-1,2-dihydro-3H-indazol-3-one], the IC50 was under 1000 nM.

On to `CN1CCC(Nc2ccc(Cl)c(Cn3c4cc(-c5cnc(C(C)(C)O)nc5)ccc4c(=O)n3C)c2)C1=O` (centres unmarked) [Example 109, 1-(2-Chloro-5-((1-methyl-2-oxopyrrolidin-3-yl)amino)benzyl)-6-(2-(2-hydroxypropan-2-yl)pyrimidin-5-yl)-2-methyl-1H-indazol-3(2H)-one], for which the IC50 lay within 1000 to 10000 nM. The value for `CC(=O)N1CCN(c2ncc(-c3ccc4c(=O)n(C)n(Cc5cc(Cc6cn[nH]c6)ccc5OC(F)F)c4c3)cn2)C[C@H]1C` [Example 110, (R)-1-(5-((1H-Pyrazol-4-yl)methyl)-2-(difluoromethoxy)benzyl)-6-(2-(4-acetyl-3-methylpiperazin-1-yl)pyrimidin-5-yl)-2-methyl-1H-indazol-3(2H)-one] was under 1000 nM; that for `Cn1c(=O)c2ccc(-c3cnc(C(C)(C)O)nc3)cc2n1Cc1cc(Cc2cn[nH]c2)ccc1OC(F)F` [Example 111, 1-(5-((1H-Pyrazol-4-yl)methyl)-2-(difluoromethoxy)benzyl)-6-(2-(2-hydroxypropan-2-yl)pyrimidin-5-yl)-2-methyl-1H-indazol-3(2H)-one] was under 1000 nM.
